According to US8916183B2, “Pesticidal compositions and processes related thereto” (priority 2012, dated 2014):
Where two headings read alike, the source gives them in different places.

Tests used:
[1] = tested on: Corn Earworm (CEW) (Helicoverpa zea); assay: Bioassay on corn earworm (CEW), 128-well diet tray assay; format: in vivo; conditions: Helicoverpa zea, read-out: % Mortality CEW 50 μg/cm^2
Method: (§1) Certain molecules disclosed in this document were tested against BAW and CEW using procedures described in the following examples. In the reporting of the results, the “BAW & CEW Rating Table” was used (See Table Section).
Bioassays on CEW (Helicoverpa zea)
Bioassays on CEW were conducted using a 128-well diet tray assay. […] Trays were covered with a clear self-adhesive cover and held at 25° C., 14:10 light-dark for five to seven days. Percent mortality was recorded for the larvae in each well; activity in the eight wells was then averaged. The results are indicated in the table entitled “Table 5: Biological Results” (See Table Section).

[2] = tested on: Beet Armyworm (BAW) (Spodoptera exigua); assay: Bioassay on beet armyworm (BAW), 128-well diet tray assay; format: in vivo; conditions: Spodoptera exigua, read-out: % Mortality BAW 50 μg/cm^2
Method: as §1
Bioassays on BAW (Spodoptera exigua)
Bioassays on BAW were conducted using a 128-well diet tray assay. […] Trays were covered with a clear self-adhesive cover and held at 25° C., 14:10 light-dark for five to seven days. Percent mortality was recorded for the larvae in each well; activity in the eight wells was then averaged. The results are indicated in the table entitled “Table 5: Biological Results” (See Table Section).

SMILES | mortality at 50 µg/cm2 ([1]; corn earworm, 50 μg/cm^2) | mortality at 50 µg/cm2 ([2]; beet armyworm, 50 μg/cm^2) | mortality at 50 µg/cm2 [1] | mortality at 50 µg/cm2 [2]
CC(C)c1ccccc1N1/C(=N/N=C/c2ccc(-c3ncn(-c4ccc(OC(F)(F)F)cc4)n3)cc2)SCC1(O)C(F)(F)F (racemic) [Compound 246C] | 50 to 100% | 50 to 100% | – | –
COc1cc(C)c(N2C(=O)CSC2=NN=Cc2ccc(-c3ncn(-c4ccc(OC(F)(F)F)cc4)n3)cc2)c(C)c1 (stereo in doubt) [Compound 69C, (Z)-3-(4-methoxy-2,6-dimethylphenyl)-2-((E)-(4-(1-(4-(trifluoromethoxy)phenyl)-1H-1,2,4-triazol-3-yl)benzylidene)hydrazono)thiazolidin-4-one] | 50 to 100% | 50 to 100% | – | –
COc1cc(C)c(/N=C(\N/N=C/c2ccc(-c3ncn(-c4ccc(C(F)(F)F)cc4)n3)cc2)SCOC(=O)CNC(=O)OCc2ccccc2)c(C)c1 [Compound 45C] | – | – | 50 to 100% | 50 to 100%
COc1cc(C)c(/N=C(/N/N=C/c2ccc(-c3ncn(-c4ccc(OC(F)(F)F)cc4)n3)cc2)SCC(=O)O)c(C)c1 [Compound 48C] | 50 to 100% | 50 to 100% | – | –
COc1ccc(/N=C(/N/N=C/c2ccc(-c3ncn(-c4ccc(OC(F)(F)C(F)(F)F)cc4)n3)cc2)SCC(=O)O)c(C)c1 [Compound 50C] | 50 to 100% | 50 to 100% | – | –
Cc1cccc(C)c1/N=C(/N/N=C/c1ccc(-c2ncn(-c3ccc(OC(F)(F)F)cc3)n2)cc1)SCC(=O)NC[C@@H]1CCCN(C(=O)OC(C)(C)C)C1 [Compound 56C, (S)-tert-butyl 3-((2-((Z)-(2,6-dimethylphenylimino)-((E)-2-(4-(1-(4-(trifluoromethoxy)phenyl)-1H-1,2,4-triazol-3-yl)benzylidene)hydrazinyl)-methylthio)acetamido)methyl)piperidine-1-carboxylate] | 50 to 100% | 50 to 100% | – | –
Cc1cccc(C)c1/N=C(/N/N=C/c1ccc(-c2ncn(-c3ccc(OC(F)(F)F)cc3)n2)cc1)SCC(=O)NCCCN(C)C(=O)OC(C)(C)C [Compound 61C] | – | – | 50 to 100% | 50 to 100%
COc1cccc(N2C(=O)CS/C2=N\N=C\c2ccc(-c3ncn(-c4ccc(OC(F)(F)F)cc4)n3)cc2)c1 [Compound 91C] | 0% | 0% | – | –
CN(C)c1cccc(N2C(=O)CS/C2=N\N=C\c2ccc(-c3ncn(-c4ccc(OC(F)(F)F)cc4)n3)cc2)c1 [Compound 97C] | 50 to 100% | 50 to 100% | – | –
CCOc1cccc(OCC)c1N1C(=O)CS/C1=N\N=C\c1ccc(-c2ncn(-c3ccc(OC(F)(F)F)cc3)n2)cc1 [Compound 98C] | – | 50 to 100% | – | –
O=C1CS/C(=N\N=C\c2ccc(-c3ncn(-c4ccc(OC(F)(F)F)cc4)n3)cc2)N1c1c(Br)cccc1Br [Compound 99C] | 50 to 100% | 50 to 100% | – | –
Cc1cccc(C)c1N1C(=O)CS/C1=N\N=C\c1ccc(-c2ncn(-c3ccc(OC(F)(F)C(F)(F)F)cc3)n2)cc1 [Compound 100C] | 50 to 100% | 50 to 100% | – | –
COc1cc(C)c(N2C(=O)CS/C2=N\N=C\c2ccc(-c3ncn(-c4ccc(OC(F)(F)F)cc4)n3)cc2)c(C)n1 [Compound 101C] | 50 to 100% | 50 to 100% | – | –
O=C1CS/C(=N\N=C\c2ccc(-c3cn(-c4ccc(OC(F)(F)F)cc4)cn3)cc2)N1c1c(Cl)cccc1Cl [Compound 102C] | 50 to 100% | 50 to 100% | – | –
Cc1cccc(C)c1N1C(=O)CS/C1=N\N=C\c1ccc(-c2ccn(-c3ccc(OC(F)(F)F)cc3)n2)cc1 [Compound 103C] | 50 to 100% | 50 to 100% | – | –
Cc1cccc(C)c1N1C(=O)CS/C1=N\N=C\c1ccc(-c2cnn(-c3ccc(OC(F)(F)F)cc3)c2)cc1 [Compound 104C] | 50 to 100% | 50 to 100% | – | –
Cc1cc(Cl)cc(C)c1N1C(=O)CS/C1=N\N=C\c1ccc(-c2ncn(-c3ccc(OC(F)(F)F)cc3)n2)cc1 [Compound 105C] | 50 to 100% | 50 to 100% | – | –
O=C1CS/C(=N\N=C\c2ccc(-c3ncn(-c4ccc(OC(F)(F)F)cc4)n3)cc2)N1c1ccccc1Cl [Compound 106C] | 50 to 100% | 50 to 100% | – | –
CCOC(=O)c1ccccc1N1C(=O)CS/C1=N\N=C\c1ccc(-c2ncn(-c3ccc(OC(F)(F)F)cc3)n2)cc1 [Compound 107C] | 0% | 0% | – | –
COC(=O)C1CC(c2ccc(/C=N/N=C3\SCC(=O)N3c3c(Cl)cccc3Cl)cc2)=NN1c1ccc(OC(F)(F)F)cc1 (stereo not shown) [Compound 109C] | 50 to 100% | 50 to 100% | – | –
COC(=O)C1CC(c2ccc(/C=N/N=C3\SCC(=O)N3c3c(C)cccc3C)cc2)=NN1c1ccc(OC(F)(F)F)cc1 (stereo not shown) [Compound 110C] | 50 to 100% | 50 to 100% | – | –
Cc1ccccc1N1C(=O)CS/C1=N\N=C\c1ccc(-c2ncn(-c3ccc(OC(F)(F)F)cc3)n2)cc1 [Compound 113C] | 50 to 100% | 50 to 100% | – | –
